One experiment has as its system IL-6 (THP-1 cells). In words: IL-6 inhibition in LPS-stimulated THP-1 monocytes (HTRF). The format is cell-based. The conditions noted are these: Homo sapiens, IL-6 HTRF; for EC50: 500 ng/mL LPS, Table 6; for inhibition at 10 µM: LPS, Table 6, read-out: percent inhibition at 10 μM (given in parentheses for EC50 >10 μM). As to the method:
Human Monocyte Cell Culture: Human monocyte cell line (THP-1 cells; Catalog # TIB-202, ATCC, Manassas, Va.) were cultured in Roswell Park Memorial Institute (RPMI) 1640 Medium (Catalog #21870-100, Buffalo, N.Y.) with 1% L-glutamine, 1% HEPES, 1% Sodium Pyruvate, 2% Sodium Bicarbonate supplemented with 100 units/mL penicillin, 50 μg/mL streptomycin, 2-mercaptoethanol (0.05 mM) [basal medium] and 10% fetal bovine serum (Catalog #16140089, Life Technologies, Carlsbad, Calif.) at 37° C. and 5% CO2.
Compound Screening: THP-1 cells were cultured in basal media with 1% FBS for 24 hours before the start of the assay. Each compound was dissolved in DMSO as a 10 mM stock and used to prepare compound source plates. Serial dilution (1:3, 10-point dose-response curves starting from 10 μM) and compound transfer was performed using the ECHO 550 (Labcyte, Sunnyvale, Calif.) into 384-well white low volume assay plates (Greiner Bio-One) with appropriate DMSO backfill for a final DMSO concentration of 0.1%. THP-1 cells were plated at 5000 cells/well in the 384-well plates and incubated at 37° C. for 2 h. 500 ng/mL of LPS was added after 2 hours and cells were incubated for another 22 hours at 37° C. Plates were spun in a centrifuge for 1 minute at […] and a mixture of anti-IL6 XL665, and anti-IL6 Cryptate diluted in reconstitution buffer (Cisbio Inc.) was added to each well. Following incubation for 3 hrs at room temperature, Homogeneous Time-Resolved Fluorescence (HTRF) was measured using the Envision (Perkin Elmer) at 665 nm and […]. The ratio of fluorescence at 665 nm to 620 nm was used as a readout for IL6 quantification. All samples were processed in duplicate. Readings were normalized to DMSO treated cells and normalized activities were utilized for EC50 calculations using the dose-response log (inhibitor) vs. response-variable slope (four parameters) nonlinear regression feature available in GraphPad Prism 5.0 (or Dotmatics). For EC50 of >10 μM, the percent inhibition at 10 μM is provided.

For experiment [1], the system named is Wnt activity (Sp5-Luc reporter, Wnt-responsive promoter) in SW480 colon carcinoma cells. Nature of the experiment: Wnt activity screening assay: Sp5-Luc reporter gene assay in SW480 cells. The class given is cell-based. Particulars: Homo sapiens; for EC50: overnight incubation, 10-point curve starting from 10 μM; for inhibition at 10 µM: read-out: percent inhibition at 10 μM (given for EC50 of >10 μM). The source says:
The screening assay for Wnt activity is described as follows. Reporter cell lines can be generated by stably transducing cancer cell lines (e.g., colon cancer) or primary cells (e.g., IEC-6 intestinal cells) with a lentiviral construct that includes a Wnt-responsive promoter driving expression of the firefly luciferase gene.
SW480 colon carcinoma cells were transduced with a lentiviral vector expressing luciferase with a human Sp5 promoter consisting of a sequence of eight TCF/LEF binding sites. SW480 cells stably expressing the Sp5-Luc reporter gene and a hygromycin resistance gene were selected by treatment with 150 μg/mL of hygromycin for 7 days. These stably transduced SW480 cells were expanded in cell culture and used for all further screening activities. Each compound was dissolved in DMSO as a 10 mM stock and used to prepare compound source plates. Serial dilution (1:3, 10-point dose-response curves starting from 10 μM) and compound transfer was performed using the ECHO 550 (Labcyte, Sunnyvale, Calif.) into 384-well white solid bottom assay plates (Greiner Bio-One) with appropriate DMSO backfill for a final DMSO concentration of 0.1%. For Sp5-Luc reporter gene assays, the cells were plated at 4,000 cells/well in 384-well plates with medium containing 1% fetal bovine serum and incubated overnight at 37° C. and 5% CO2. Following incubation, 20 μl of BrightGlo luminescence reagent (Promega) was added to each well of the 384-well assay plates. The plates were placed on an orbital shaker for 2 min and then luminescence was quantified using the Envision (Perkin Elmer) plate reader. Readings were normalized to DMSO only treated cells, and normalized activities were utilized for EC50 calculations using the dose-response log (inhibitor) vs. response-variable slope (four parameters) nonlinear regression feature available in GraphPad Prism 5.0 (or Dotmatics). For EC50 of >10 μM, the percent inhibition at 10 μM is provided.
(In general: A reporter such as luciferase makes a cellular process visible.)

Usually EC50 stands for the midpoint of the concentration-response curve. A lower EC50 goes with greater potency. `Fc1cccc(-c2cccc3[nH]c(-c4n[nH]c5ccc(-c6cncc(CN7CCC(F)(F)C7)c6)nc45)nc23)c1` [Compound 26, 5-(5-((3,3-Difluoropyrrolidin-1-yl)methyl)pyridin-3-yl)-3-(4-(3-fluorophenyl)-1H-benzo[d]imidazol-2-yl)-1H-pyrazolo[4,3-b]pyridine]: the values for the EC50 (in the experiment on IL-6 (THP-1 cells); in experiment [1]) were 5.18 µM and 2.1 µM, respectively.

A word on the inhibition: it is the drop in the measured response relative to a control, in per cent. As to `CC(C)(C)C(=O)Nc1cncc(-c2ccc3[nH]nc(-c4nc5c(-c6ccc(F)cc6)cccc5[nH]4)c3n2)c1` [Compound 36, N-(5-(3-(4-(4-Fluorophenyl)-1H-benzo[d]imidazol-2-yl)-1H-pyrazolo[4,3-b]pyridin-5-yl)pyridin-3-yl)pivalamide], in the experiment on IL-6 (THP-1 cells), the EC50 was greater than 10 µM and the inhibition at 10 µM amounted to 25.7%. Besides, the EC50 in experiment [1] is 3.01 µM.

Take `Fc1ccc(-c2cccc3[nH]c(-c4n[nH]c5ccc(-c6cncc(CN7CCCC7)c6)nc45)nc23)cc1` [Compound 42, 3-(4-(4-Fluorophenyl)-1H-benzo[d]imidazol-2-yl)-5-(5-(pyrrolidin-1-ylmethyl)pyridin-3-yl)-1H-pyrazolo[4,3-b]pyridine]: the EC50 in the experiment on IL-6 (THP-1 cells) was found to be 0.389 µM; in experiment [1], 1.08 µM.

Consider `O=C(Nc1cncc(-c2ccc3[nH]nc(-c4nc5c(-c6ccc(F)cc6)cccc5[nH]4)c3n2)c1)C1CCC1` [Compound 49, N-(5-(3-(4-(4-Fluorophenyl)-1H-benzo[d]imidazol-2-yl)-1H-pyrazolo[4,3-b]pyridin-5-yl)pyridin-3-yl)cyclobutanecarboxamide], for which, in the experiment on IL-6 (THP-1 cells), the EC50 was greater than 10 µM and the inhibition at 10 µM stood at 43.6%. Besides, in experiment [1], the inhibition at 10 µM worked out at 28.3% and the concentration giving a half-maximal response (EC50) is greater than 10 µM.

Regarding `Fc1ccc(-c2cccc3[nH]c(-c4n[nH]c5ccc(-c6cncnc6)nc45)nc23)cc1` [Compound 55, 3-(4-(4-Fluorophenyl)-1H-benzo[d]imidazol-2-yl)-5-(pyrimidin-5-yl)-1H-pyrazolo[4,3-b]pyridine], in the experiment with IL-6 (THP-1 cells), the EC50 is greater than 10 µM and the inhibition at 10 µM came out at 38.8%. Further, in experiment [1], the inhibition at 10 µM is 6.5% and the EC50 is greater than 10 µM.

Turning to `Nc1cncc(-c2ccc3[nH]nc(-c4nc5c(-c6ccccc6F)cccc5[nH]4)c3n2)c1` [Compound 59, 5-(3-(4-(2-Fluorophenyl)-1H-benzo[d]imidazol-2-yl)-1H-pyrazolo[4,3-b]pyridin-5-yl)pyridin-3-amine], the EC50 came to 0.487 µM in the experiment with IL-6 (THP-1 cells) and 1.34 µM in experiment [1].

For the compound `CC(C)C(=O)Nc1cncc(-c2ccc3[nH]nc(-c4nc5c(-c6ccccc6F)cccc5[nH]4)c3n2)c1` [Compound 65, N-(5-(3-(4-(2-fluorophenyl)-1H-benzo[d]imidazol-2-yl)-1H-pyrazolo[4,3-b]pyridin-5-yl)pyridin-3-yl)isobutyramide], in the experiment on IL-6 (THP-1 cells), the EC50 was greater than 10 µM and the inhibition at 10 µM amounted to 30.7%. A half-maximal response in experiment [1] (EC50) required 5.1 µM.

For `CC(C)(C)CC(=O)Nc1cncc(-c2ccc3[nH]nc(-c4nc5c(-c6ccccc6F)cccc5[nH]4)c3n2)c1` [Compound 72, N-(5-(3-(4-(2-Fluorophenyl)-1H-benzo[d]imidazol-2-yl)-1H-pyrazolo[4,3-b]pyridin-5-yl)pyridin-3-yl)-3,3-dimethylbutanamide], in the experiment with IL-6 (THP-1 cells), the EC50 was greater than 10 µM and the inhibition at 10 µM was 14.1%. In experiment [1], the inhibition at 10 µM is 11.6% and the EC50 was greater than 10 µM.

On to `O=C(Nc1cncc(-c2ccc3[nH]nc(-c4nc5c(-c6ccccc6F)cccc5[nH]4)c3n2)c1)C1CCCC1` [Compound 78, N-(5-(3-(4-(2-Fluorophenyl)-1H-benzo[d]imidazol-2-yl)-1H-pyrazolo[4,3-b]pyridin-5-yl)pyridin-3-yl)cyclopentanecarboxamide], for which the EC50 (in the experiment with IL-6 (THP-1 cells); in experiment [1]) was greater than 10 µM throughout. In addition, the inhibition at 10 µM worked out at 19.1% in the experiment with IL-6 (THP-1 cells) and 29% in experiment [1].

`Fc1ccccc1-c1cccc2[nH]c(-c3n[nH]c4ccc(-c5cncc(CNCC6CCCC6)c5)nc34)nc12` [Compound 81, 1-Cyclopentyl-N-((5-(3-(4-(2-fluorophenyl)-1H-benzo[d]imidazol-2-yl)-1H-pyrazolo[4,3-b]pyridin-5-yl)pyridin-3-yl)methyl)methanamine]: the EC50 is 3.6 µM in the experiment with IL-6 (THP-1 cells) and 1.14 µM in experiment [1].

With `c1cncc(-c2ccc3[nH]nc(-c4nc5c(-c6cccnc6)cccc5[nH]4)c3n2)c1` [Compound 88, 5-(Pyridin-3-yl)-3-(4-(pyridin-3-yl)-1H-benzo[d]imidazol-2-yl)-1H-pyrazolo [4,3-b]pyridine], in the experiment with IL-6 (THP-1 cells), the EC50 is greater than 10 µM and the inhibition at 10 µM is 31.8%. This compound displayed an EC50 in experiment [1] of 2.62 µM.

With `CC(C)C(=O)Nc1cncc(-c2ccc3[nH]nc(-c4nc5c(-c6cccnc6)cccc5[nH]4)c3n2)c1` [Compound 93, N-(5-(3-(4-(Pyridin-3-yl)-1H-benzo[d]imidazol-2-yl)-1H-pyrazolo[4,3-b]pyridin-5-yl)pyridin-3-yl)isobutyramide], in the experiment with IL-6 (THP-1 cells), the concentration for a half-maximal effect (EC50) was greater than 10 µM and the inhibition at 10 µM worked out at 42.5%. The same compound had an EC50 in experiment [1] of 3.78 µM.

On to `CC(C)Nc1cncc(-c2ccc3[nH]nc(-c4nc5c(-c6cccnc6)cccc5[nH]4)c3n2)c1` [Compound 96, N-Isopropyl-5-(3-(4-(pyridin-3-yl)-1H-benzo[d]imidazol-2-yl)-1H-pyrazolo [4,3-b]pyridin-5-yl)pyridin-3-amine], for which the values for the EC50 (with IL-6 (THP-1 cells); in experiment [1]) were 1.74 µM and 2.54 µM, respectively.

Turning to `c1ccc(CNCc2cncc(-c3ccc4[nH]nc(-c5nc6c(-c7cccnc7)cccc6[nH]5)c4n3)c2)cc1` [Compound 108, N-Benzyl-1-(5-(3-(4-(pyridin-3-yl)-1H-benzo[d]imidazol-2-yl)-1H-pyrazolo [4,3-b]pyridin-5-yl)pyridin-3-yl)methanamine], the figures for the EC50 (with IL-6 (THP-1 cells); in experiment [1]) were 2.12 µM and 2.3 µM, respectively.

On to `Cc1ccncc1-c1ccc2[nH]nc(-c3nc4c(-c5ccncc5)cccc4[nH]3)c2n1` [Compound 117, 5-(4-Methylpyridin-3-yl)-3-(4-(pyridin-4-yl)-1H-benzo[d]imidazol-2-yl)-1H-pyrazolo[4,3-b]pyridine], for which, in the experiment on IL-6 (THP-1 cells), the EC50 is greater than 10 µM and the inhibition at 10 µM is 51.4%. For the same compound, in experiment [1], the inhibition at 10 µM came to 44.9% and the EC50 was greater than 10 µM.

For the compound `O=C(Cc1ccccc1)Nc1cncc(-c2ccc3[nH]nc(-c4nc5c(-c6ccncc6)cccc5[nH]4)c3n2)c1` [Compound 122, 2-Phenyl-N-(5-(3-(4-(pyridin-4-yl)-1H-benzo[d]imidazol-2-yl)-1H-pyrazolo [4,3-b]pyridin-5-yl)pyridin-3-yl)acetamide], in the experiment with IL-6 (THP-1 cells), the EC50 is greater than 10 µM and the inhibition at 10 µM is 40.3%. For the same compound, in experiment [1], the inhibition at 10 µM was found to be 44.4% and the EC50 is greater than 10 µM.

On to `CCCC(=O)Nc1cncc(-c2ccc3[nH]nc(-c4nc5c(-c6ccncc6)cccc5[nH]4)c3n2)c1` [Compound 129, N-(5-(3-(4-(Pyridin-4-yl)-1H-benzo[d]imidazol-2-yl)-1H-pyrazolo[4,3-b]pyridin-5-yl)pyridin-3-yl)butyramide], for which, in the experiment on IL-6 (THP-1 cells), the concentration giving a half-maximal response (EC50) was greater than 10 µM and the inhibition at 10 µM stood at 34.9%. In addition, in experiment [1], the inhibition at 10 µM was 0% and the EC50 is greater than 10 µM.

Source of the values: patent US10392383B2, “3-(1H-benzo[d]imidazol-2-yl)-1H-pyrazolo[4,3-b]pyridines and therapeutic uses thereof” (Samumed, LLC, priority 2015, dated 2019).
